Experimental data reported in ChEMBL document CHEMBL1909511, “Inhalation by design: novel tertiary amine muscarinic M₃ receptor antagonists with slow off-rate binding kinetics for inhaled once-daily treatment of chronic obstructive pulmonary disease” (J Med Chem, 2011).

Assays:
[1] = molecular target: T1, Muscarinic acetylcholine receptor M3 (Homo sapiens, UniProt P20309); assay: Displacement of [3H]-NMS from human recombinant M3 receptor expressed in CHO cells after 24 hrs by filter binding assay; assay type: cell-based
Target sequence in this assay (P20309 whole entry): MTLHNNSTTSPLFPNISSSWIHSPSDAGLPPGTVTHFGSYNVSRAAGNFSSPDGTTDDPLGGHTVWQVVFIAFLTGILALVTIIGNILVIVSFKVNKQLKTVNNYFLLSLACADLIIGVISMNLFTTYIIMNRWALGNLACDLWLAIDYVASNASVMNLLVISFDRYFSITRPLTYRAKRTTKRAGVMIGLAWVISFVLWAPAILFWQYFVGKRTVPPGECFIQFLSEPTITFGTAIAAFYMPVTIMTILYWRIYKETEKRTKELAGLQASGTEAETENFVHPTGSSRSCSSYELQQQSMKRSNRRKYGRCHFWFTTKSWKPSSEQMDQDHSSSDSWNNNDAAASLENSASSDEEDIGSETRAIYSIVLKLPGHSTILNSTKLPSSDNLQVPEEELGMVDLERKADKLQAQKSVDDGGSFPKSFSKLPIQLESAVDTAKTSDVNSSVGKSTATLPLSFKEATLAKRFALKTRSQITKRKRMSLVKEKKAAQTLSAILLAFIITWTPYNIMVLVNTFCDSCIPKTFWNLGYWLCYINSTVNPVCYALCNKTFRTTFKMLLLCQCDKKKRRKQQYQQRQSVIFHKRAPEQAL

[2] = molecular target: T2, Muscarinic acetylcholine receptor M2 (Homo sapiens, UniProt P08172); assay: Displacement of [3H]-NMS from human recombinant M2 receptor expressed in CHO cells after 24 hrs by filter binding assay; assay type: cell-based
T2 sequence (P08172 whole entry): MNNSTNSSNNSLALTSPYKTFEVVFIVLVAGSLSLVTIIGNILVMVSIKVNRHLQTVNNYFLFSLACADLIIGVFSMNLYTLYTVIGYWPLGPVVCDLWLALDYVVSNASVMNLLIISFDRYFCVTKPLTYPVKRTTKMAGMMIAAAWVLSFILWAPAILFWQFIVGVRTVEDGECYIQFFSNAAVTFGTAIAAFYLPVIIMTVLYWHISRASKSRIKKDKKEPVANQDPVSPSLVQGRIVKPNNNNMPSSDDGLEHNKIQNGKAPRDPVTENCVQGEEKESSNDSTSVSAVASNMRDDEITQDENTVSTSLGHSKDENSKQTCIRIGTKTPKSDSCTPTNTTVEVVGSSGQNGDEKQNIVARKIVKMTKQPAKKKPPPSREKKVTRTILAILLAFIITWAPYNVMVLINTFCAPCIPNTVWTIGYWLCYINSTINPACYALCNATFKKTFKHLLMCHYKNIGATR

[3] = Total clearance in iv dosed rat; assay type: ADME, organism-based; conditions: in vivo
[4] = molecular target: T1, Muscarinic acetylcholine receptor M3
Target sequence in this assay (P20309 whole entry, looked up): as the sequence (P20309 whole entry) above

[5] = Plasma protein binding in iv dosed rat; assay type: ADME, organism-based; conditions: read-out: PPB (converted)
[6] = Volume of distribution at steady state in iv dosed rat; assay type: ADME, organism-based; conditions: in vivo, read-out: Vdss
Rattus norvegicus = assay: Unbound clearance in iv dosed rat; assay type: ADME, organism-based; conditions: in vivo
Oryctolagus cuniculus = assay: Toxicity in rabbit lung cough model assessed as induction of cough production at 2000 ug administered intratracheally; assay type: organism-based; conditions: in vivo, inhaled_or_intranasal
[7] = Intrinsic clearance in human hepatocytes assessed per million cells
[8] = molecular target: T3, Muscarinic acetylcholine receptor M1 (Homo sapiens) (UniProt P11229); assay: Displacement of [3H]-NMS from human recombinant M1 receptor expressed in CHO cells assessed as dissociation half life at 100 fold human M1 receptor binding Ki concentration after 24 hrs by dilution-offset filter binding assay; assay type: cell-based
T3 sequence (whole entry): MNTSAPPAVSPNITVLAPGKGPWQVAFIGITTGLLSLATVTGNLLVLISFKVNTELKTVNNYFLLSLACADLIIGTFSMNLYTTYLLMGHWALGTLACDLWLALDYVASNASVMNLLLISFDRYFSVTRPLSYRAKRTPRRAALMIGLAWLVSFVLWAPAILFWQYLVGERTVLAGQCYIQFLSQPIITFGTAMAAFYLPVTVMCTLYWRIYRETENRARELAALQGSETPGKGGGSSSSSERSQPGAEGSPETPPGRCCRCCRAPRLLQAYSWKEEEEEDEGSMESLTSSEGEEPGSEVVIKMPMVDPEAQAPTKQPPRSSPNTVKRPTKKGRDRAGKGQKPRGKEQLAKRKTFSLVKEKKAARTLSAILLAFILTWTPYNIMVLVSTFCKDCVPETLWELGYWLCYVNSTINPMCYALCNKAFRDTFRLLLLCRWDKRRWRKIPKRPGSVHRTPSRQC

[9] = molecular target: T4, Muscarinic acetylcholine receptor M2 (Homo sapiens) (UniProt P08172); assay: Displacement of [3H]-NMS from human recombinant M2 receptor expressed in CHO cells assessed as dissociation half life at 100 fold human M2 receptor binding Ki concentration after 24 hrs by dilution-offset filter binding assay; assay type: cell-based
T4 sequence (whole entry): T2 sequence (P08172 whole entry)

[10] = molecular target: T5, Muscarinic acetylcholine receptor M5 (Homo sapiens) (UniProt P08912); assay: Displacement of [3H]-NMS from human recombinant M5 receptor expressed in CHO cells assessed as dissociation half life at 100 fold human M5 receptor binding Ki concentration after 24 hrs by dilution-offset filter binding assay; assay type: cell-based
T5 sequence (whole entry): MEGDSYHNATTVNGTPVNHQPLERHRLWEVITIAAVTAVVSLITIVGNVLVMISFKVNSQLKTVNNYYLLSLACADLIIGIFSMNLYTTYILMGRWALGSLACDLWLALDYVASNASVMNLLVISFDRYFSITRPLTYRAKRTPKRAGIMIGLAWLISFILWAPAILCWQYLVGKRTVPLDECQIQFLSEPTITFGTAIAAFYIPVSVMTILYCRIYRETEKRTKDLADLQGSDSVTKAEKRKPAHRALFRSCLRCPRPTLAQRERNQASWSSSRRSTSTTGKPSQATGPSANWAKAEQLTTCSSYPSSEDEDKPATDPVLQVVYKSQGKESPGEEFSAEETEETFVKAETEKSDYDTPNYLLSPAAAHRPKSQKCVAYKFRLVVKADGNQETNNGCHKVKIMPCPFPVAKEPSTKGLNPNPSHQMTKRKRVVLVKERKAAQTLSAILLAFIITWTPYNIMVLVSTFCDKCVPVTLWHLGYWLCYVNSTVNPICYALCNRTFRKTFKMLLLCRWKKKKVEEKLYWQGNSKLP

MDR1 = assay: Apparent permeability across apical to basal side in dog MDCK expressing MDR1; assay type: ADME, cell-based, Canis lupus familiaris
[11] = Intrinsic clearance in human liver microsomes assessed per mg of protein by glucuronidation assay in presence of Brijj-58 and UDPGA
[12] = molecular target: T6, Muscarinic acetylcholine receptor M4 (Homo sapiens, UniProt P08173); assay: Displacement of [3H]-NMS from human recombinant M4 receptor expressed in CHO cells after 24 hrs by filter binding assay; assay type: cell-based
T6 sequence (P08173 whole entry): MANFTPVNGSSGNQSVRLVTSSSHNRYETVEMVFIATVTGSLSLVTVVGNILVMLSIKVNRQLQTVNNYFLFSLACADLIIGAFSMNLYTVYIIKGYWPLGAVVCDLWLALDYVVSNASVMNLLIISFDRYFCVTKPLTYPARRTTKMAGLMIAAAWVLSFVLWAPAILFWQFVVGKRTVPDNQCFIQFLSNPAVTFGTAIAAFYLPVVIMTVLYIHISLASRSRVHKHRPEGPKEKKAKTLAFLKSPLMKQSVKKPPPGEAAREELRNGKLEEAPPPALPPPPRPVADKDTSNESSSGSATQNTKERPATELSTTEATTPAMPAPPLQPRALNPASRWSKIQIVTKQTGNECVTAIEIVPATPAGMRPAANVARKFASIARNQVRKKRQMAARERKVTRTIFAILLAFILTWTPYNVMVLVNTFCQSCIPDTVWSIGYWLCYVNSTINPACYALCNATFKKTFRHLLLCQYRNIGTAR

Canis familiaris = assay: Bronchodilator activity in methacholine challenged Beagle dog assessed as intrinsic duration of action at 10 ug intratracheally administered as single dose in micelle solution; assay type: functional, Canis lupus familiaris
Cavia porcellus = assay: Bronchodilator activity in Dunkin-Hartley guinea pig assessed as inhibition of […] lung resistance after cumulative intratracheal administration in micelle solution at hourly intervals challenged each time 1 hr later with methacholine; assay type: functional, organism-based

## CC(C)(CCC(C(N)=O)(c1ccccc1)c1ccccc1)N1CC(Oc2cccc(O)c2)C1 [PF-03635659]
[1]
  Ki: 0.128 nM
[2]
  Ki: 0.137 nM
[3]
  clearance: 134 mL/min/kg
[4]
  pKb: 9.6
[5]
  fraction unbound: 0.065
[6]
  Vd: 8.4 L/kg
Rattus norvegicus
  CL free: 2065 mL/min/kg
Oryctolagus cuniculus
  Activity: Toxic
[7]
  hepatocyte CLint: 96 µL/min/1e6 cells
[8]
  T1/2: 14 h
[9]
  T1/2: 4.38 h
[10]
  T1/2: > 16.7 h
MDR1
  Papp A→B: 7 ×10⁻⁶ cm/s
[11]
  microsomal CLint: 221 µL/min/mg
[12]
  Ki: 0.115 nM
Canis familiaris
  Time: 32 h
Cavia porcellus
  ED50: 3 µg
